Reference: patent publication EP4702986A1, “POLYPEPTIDE AND USE THEREOF” (Biocells (Beijing) Biotech Co., Ltd., priority 2023, dated 2024)
“Also recorded” adds a separate entry of the source. Numbered stars: 1 amine (or outer) side, 2 acyl side, 3 side chain; on linkers, the order of the positions; unused ones are H or OH. Side chains are listed from the residue outwards. Peptide text beside a SMILES is read from it. * marks the point of attachment. X1 = C[C@H](NC(=O)[C@@H]1CCCN1C(=O)[C@@H](N)CSC1CC(=O)N(CCC(=O)*)C1=O)C(=O)N[C@@H](CCCCN)C(=O)O; C18 diacid = O=C(O)CCCCCCCCCCCCCCCCC(=O)*; γGlu = O=C(O)[C@H](CCC(=O)[*:2])N[*:1]; Fumaroyl = O=C(O)/C=C/C(=O)*; Lauroyl = CCCCCCCCCCCC(=O)*; AEEA = NCCOCCOCC(=O)O

Tests used:
BDNF [1] = assay: BDNF protein expression in infarcted brain tissue of tMCAO mice (ELISA); assay type: in vivo, C57/6J mice; conditions: for BDNF: 3 times (D1, D3, D6), infarcted brain tissue after D14; for expression level of BDNF protein compared with the normal saline group: tMCAO mice
Procedure: (§1) Fifty-one male C57/6J mice, aged 10-12 weeks, weighing 25-30g, were housed for at least 2 days prior to the experiment to adapt to the environment (SPF Biotech). A mouse model of tMCAO was established. The mice were anesthetized with isoflurane. Their body temperature was controlled by a thermostatic blanket and monitored and maintained at 37±0.5°C. A middle incision was made in the skin on the mouse skull, the skin was pulled outward, and a bendable microneedle tip was fixed to the surface of the left parietal bone of the mouse skull. A middle incision on the neck was made to separate the right common carotid artery (CCA), external carotid artery (ECA) and internal carotid artery (ICA). According to the method of Longa (Longa et al., 1989), a silicone rubber-coated suture (RWD Life Science, suture end diameter: 0.22 mm-0.23 mm, MSMC23B120PK50) was introduced through an external carotid artery incision surgery and was slowly advanced through the internal carotid artery towards the origin of the middle cerebral artery. To ensure a sustained and successful occlusion of the middle cerebral artery, we monitored local cerebral blood flow of all stroke animals with a laser speckle flowmeter (generally, the blood flow can be reduced by 40-60% after stabilized). The suture was removed 45 min after the insertion for modeling, and the incision was sutured. Afterward, 1 mL of 37°C warm saline was injected subcutaneously, and the mice were placed on a heating pad until recovery. To alleviate pain, the mice were injected subcutaneously with Tilidine after awakening from anesthesia.
(§2) Successfully modeled C57 tMCAO mice were randomly assigned into three groups: a normal saline group, a 30µg/Kg BX229-Na administration group, and a 100µg/Kg BX229-Na administration group. Each group was administered once subcutaneously in the neck 4.5 hours after occlusion (D1), and was administered once more at the same sites and at the same time points on D3 and D6. A sham group included 6 animals. 2 mL/kg was administrated subcutaneously in the neck. Garcia JH scoring was made on D7 and D14 after administration. After the completion of the scoring on D14, the mice were euthanized and harvested for infarcted brain tissues, to extract total proteins. Changes in protein markers VEGF-A and BDNF in each experimental group were detected by ELISA. Table 19: Experimental Grouping and Dosing Regimen

BDNF [2] = assay: BDNF protein expression in infarcted brain tissue, mouse model of tMCAO (ELISA); assay type: in vivo, C57/6J mice
Procedure: Fifty-one male C57/6J mice, aged 10-12 weeks, weighing 25-30g, were housed for at least 2 days prior to the experiment to adapt to the environment (SPF Biotech). A mouse model of tMCAO was established. The mice were anesthetized with isoflurane. Their body temperature was controlled by a thermostatic blanket and monitored and maintained at 37±0.5°C. A middle incision was made in the skin on the mouse skull, the skin was pulled outward, and a bendable microneedle tip was fixed to the surface of the left parietal bone of the mouse skull. A middle incision on the neck was made to separate the right common carotid artery (CCA), external carotid artery (ECA) and internal carotid artery (ICA). […] To ensure a sustained and successful occlusion of the middle cerebral artery, we monitored local cerebral blood flow of all stroke animals with a laser speckle flowmeter (generally, the blood flow can be reduced by 40-60% after stabilized). […]
Successfully modeled C57 tMCAO mice were randomly assigned into three groups: a normal saline group, a 30µg/Kg BX229-Na administration group, and a 100µg/Kg BX229-Na administration group. […] Changes in protein markers VEGF-A and BDNF in each experimental group were detected by ELISA. […]

VEGF-A = VEGF-A protein expression in infarcted brain tissue of tMCAO mice (ELISA); assay type: in vivo, C57/6J mice; conditions: for VEGF-A: 3 times s.c. (D1, D3, D6), brain tissue after D14
Procedure: as §1, §2

mouse ETB receptor = biological target: T1, mouse ETB receptor (Mus musculus, UniProt P48302); assay: Determination of EC50s of polypeptides against mouse ETB receptor; assay type: cell-based; conditions: Table 9, mouse ETB receptor; read-out: DETAR Agonist Activity EC50
T1 construct: expressed in transfected cells
T1 sequence (P48302 27-442): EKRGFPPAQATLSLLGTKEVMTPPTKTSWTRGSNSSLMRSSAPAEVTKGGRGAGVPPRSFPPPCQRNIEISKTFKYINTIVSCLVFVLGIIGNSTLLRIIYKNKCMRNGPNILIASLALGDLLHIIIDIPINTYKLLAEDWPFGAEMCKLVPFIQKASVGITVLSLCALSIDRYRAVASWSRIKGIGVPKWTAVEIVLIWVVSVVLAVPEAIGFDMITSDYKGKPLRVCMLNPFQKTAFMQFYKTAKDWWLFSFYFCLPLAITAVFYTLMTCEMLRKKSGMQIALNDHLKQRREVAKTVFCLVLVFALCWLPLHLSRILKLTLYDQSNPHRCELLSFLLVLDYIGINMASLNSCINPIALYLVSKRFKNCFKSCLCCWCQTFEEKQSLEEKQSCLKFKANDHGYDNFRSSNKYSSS

in vivo = conditions: male, SD, rat, in vivo, iv
Method in brief: (§3)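 Male SD rats (200-230 g) given single tail-vein injections, descending doses from 480 µg/Kg to 30 µg/Kg. Toxic response, mortality and time of death recorded; acute toxicity level preliminarily set from doses without mortality.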

male SD rats = assay: in vivo; conditions: one animal per row, observed 24 hours
Method in brief: as §3

SD rats = conditions: rat, in vivo
Procedure: Male SD rats were anesthetized with isoflurane, and their neck hairs were shaved. A midline incision was made on the neck to expose the trachea. A ventilator and anesthesia machine for small animals were turned on, with concentration of an anesthetic gas set to 1.2, and its exit channel connected to an inlet of the ventilator. Tidal volume of the ventilator was set to 2 mL, the respiratory rate was 90 breaths/minute, and the respiratory ratio was 1:2. An outlet end of the ventilator was connected to a plastic hose, which was inserted into the rat's airway.
A machine and a software of a biological signal data acquisition and analysis system were turned on. One end of a data acquisition plate was connected to the plastic hose, and the other end was connected to a collector valve connected with a 1-mL syringe. The syringe was filled with heparinized saline, which was injected into the data acquisition plate to expel the air in the entire space until the heparinized saline flowed out from the other end of the plastic hose. The right common carotid arteries of the rats were isolated. A dead knot was made at the distal end and a slipknot at the proximal end of a right common carotid artery. A 1/2-sized incision was made in the artery between the knot with a microscissor, and the plastic hose with heparinized saline was inserted into the incision and fixed to prevent back-and-forth movement. The initial value of the blood pressure was set to zero with the zero-adjustment valve of the biological signal data acquisition and analysis system. The slipknot at the proximal end of the common carotid artery was untied, and real-time blood pressure data of the animal appeared on the software. […] The dosages of IRL1620, BX34, and BX229 were 5 µg/Kg, 42 µg/kg, and 6.6 µg/Kg, respectively.

CCCCCCCCCCCC(=O)N[C@@H](CCC(=O)NCCOCCOCC(=O)NCCCC[C@H](NC(=O)[C@H](Cc1c[nH]cn1)NC(=O)[C@H](C)NC(=O)[C@H](Cc1ccccc1)NC(=O)[C@H](Cc1ccc(O)cc1)NC(=O)[C@@H](NC(=O)[C@H](C)NC(=O)[C@H](CCC(=O)O)NC(=O)[C@H](CCC(=O)O)NC(=O)[C@H](CC(=O)O)NC(=O)/C=C/C(=O)O)C(C)C)C(=O)N[C@@H](CC(=O)O)C(=O)N[C@H](C(=O)N[C@H](C(=O)N[C@@H](Cc1c[nH]c2ccccc12)C(=O)O)[C@@H](C)CC)C(C)C)C(=O)O [BX229-Na] (Fumaroyl-DEEAVYFAHK([AEEA-γGlu-Lauroyl])DVIW-OH)
BDNF (BDNF [1]; 30 µg/Kg subcutaneously): 1103 ± 582 pg/mL
BDNF (BDNF [1]; 100 µg/Kg subcutaneously): 1334 ± 665 pg/mL
expression level of BDNF protein compared with the normal saline group (BDNF [1]; 30µg/Kg three-dose group): higher
expression level of BDNF protein compared with the normal saline group (BDNF [1]; 100µg/Kg three-dose group): higher
expression level of BDNF protein compared with the normal saline group (BDNF [2]; 30µg/Kg three-dose group): higher than that in the normal saline group
expression level of BDNF protein compared with the normal saline group (BDNF [2]; 100µg/Kg three-dose group): higher than that in the normal saline group
expression level of VEGF-A protein compared with the normal saline group (VEGF-A; 30µg/Kg three-dose group): higher
VEGF-A (VEGF-A; 30 µg/Kg): 441 ± 102 pg/mL
expression level of VEGF-A protein compared with the normal saline group (VEGF-A; 100µg/Kg three-dose group): significantly different
VEGF-A (VEGF-A; 100 µg/Kg): 562 ± 56 pg/mL
EC50 (mouse ETB receptor): 9.05 nM

CCCCCCCCCCCC(=O)N[C@@H](CCC(=O)NCCOCCOCC(=O)NCCCC[C@H](NC(=O)[C@H](Cc1c[nH]cn1)NC(=O)[C@H](C)NC(=O)[C@H](Cc1ccccc1)NC(=O)[C@H](Cc1ccc(O)cc1)NC(=O)[C@@H](NC(=O)[C@H](C)NC(=O)[C@H](CCC(=O)O)NC(=O)[C@H](CCC(=O)O)NC(=O)[C@H](CC(=O)O)NC(=O)/C=C/C(=O)O)C(C)C)C(=O)N[C@@H](CC(=O)O)C(=O)N[C@H](C(=O)N[C@H](C(=O)N[C@@H](Cc1c[nH]c2ccccc12)C(=O)O)[C@@H](C)CC)[C@@H](C)CC)C(=O)O [BX-225] (Fumaroyl-DEEAVYFAHK([AEEA-γGlu-Lauroyl])DIIW-OH)
MTD at 24 h (in vivo): 0.03 mg/kg
Observations of Animal Status (male SD rats; intravenous (tail vein) 30 µg/Kg): No obvious abnormalities observed within 24 hours
Observations of Animal Status (male SD rats; intravenous (tail vein) 60 µg/Kg): Lay still and showed no willingness to move at 7 minutes; became active at 10 minutes; signs of pain were observed in the animal through pupil observation; no pain at 23 minutes; also recorded: Lay still and showed no willingness to move at 7 minutes; became active at 10 minutes; signs of pain were observed in the animal through pupil observation; developed rapid breathing at 35 minutes; died at 70 minutes
Observations of Animal Status (male SD rats; intravenous (tail vein) 120 µg/Kg): Breathing became slightly faster at 2 minutes, showed no willingness to move, had slow reactions, and breathing speeded up at 25 minutes; the symptoms basically eased at 1.5 hours; also recorded: Showed no willingness to move, had slow reactions, and breathing became slightly faster at 10 minutes; the symptoms lasted for nearly 1 hour; the symptoms basically eased at 1 hour and 10 minutes; also recorded: Developed abdominal breathing and lay still at 27 minutes; died of difficulty in breathing at 40 minutes; also recorded: Developed abdominal breathing and lay still at 25 minutes; died of difficulty in breathing at 32 minutes
Observations of Animal Status (male SD rats; intravenous (tail vein) 240 µg/Kg): Developed rapid breathing at 4 minutes, collapsed at 5 minutes, eyes turned dull at 7 minutes; died at 12 minutes

CC[C@H](C)[C@H](NC(=O)[C@H](CC(=O)O)NC(=O)[C@H](CCCCNC(=O)COCCOCCNC(=O)CCN1C(=O)CC(SC[C@H](N)C(=O)N2CCC[C@H]2C(=O)N[C@@H](C)C(=O)N[C@@H](CCCCN)C(=O)O)C1=O)NC(=O)[C@H](Cc1c[nH]cn1)NC(=O)[C@H](C)NC(=O)[C@H](Cc1ccccc1)NC(=O)[C@H](Cc1ccc(O)cc1)NC(=O)[C@@H](NC(=O)[C@H](C)NC(=O)[C@H](CCC(=O)O)NC(=O)[C@H](CCC(=O)O)NC(=O)[C@H](CC(=O)O)NC(=O)/C=C/C(=O)O)C(C)C)C(=O)N[C@H](C(=O)N[C@@H](Cc1c[nH]c2ccccc12)C(=O)O)[C@@H](C)CC (stereo partly drawn) [BX-95] (Fumaroyl-DEEAVYFAHK([AEEA-X1])DIIW-OH)
EC50 (mouse ETB receptor): 22.1 nM

CC[C@H](C)[C@H](NC(=O)[C@H](CC(=O)O)NC(=O)[C@H](CCCCNC(=O)COCCOCCNC(=O)COCCOCCNC(=O)CC[C@H](NC(=O)CCCCCCCCCCCCCCCCC(=O)O)C(=O)O)NC(=O)[C@H](Cc1c[nH]cn1)NC(=O)[C@H](C)NC(=O)[C@H](Cc1ccccc1)NC(=O)[C@H](Cc1ccc(O)cc1)NC(=O)[C@@H](NC(=O)[C@H](C)NC(=O)[C@H](CCC(=O)O)NC(=O)[C@H](CCC(=O)O)NC(=O)[C@H](CC(=O)O)NC(=O)/C=C/C(=O)O)C(C)C)C(=O)N[C@H](C(=O)N[C@@H](Cc1c[nH]c2ccccc12)C(=O)O)[C@@H](C)CC [BX-34] (Fumaroyl-DEEAVYFAHK([AEEA-AEEA-γGlu-C18 diacid])DIIW-OH)
maximum extent of decrease in blood pressure, of the baseline blood pressure (SD rats): 9.5%±1.7%
time to the lowest blood pressure (SD rats): 20 to 35 min
Maximum percentage of blood pressure reduction relative to baseline blood pressure (n = 3) (SD rats; iv): 9.5%±1.7%
Time from baseline blood pressure to the lowest blood pressure (SD rats; iv): 20 to 35 min
